According to patent US20090069300A1, “ISOQUINOLINYL AND ISOINDOLINYL DERIVATIVES AS HISTAMINE-3 ANTAGONISTS” (Wyeth, priority 2007, published 2009):
Counter-ions that a name gives are not always drawn.

Each compound was assayed against T1, Human Histamine H3 Receptor (Homo sapiens, UniProt Q9Y5N1) (assay: Methyl histamine binding in human histamine H3 receptor cell line). Conditions: membranes of stably transfected HEK293T cells; methyl histamine radioligand 1 nM; one hour incubation at 30° C.; Ki from IC50 by Cheng-Prusoff; read-out: H3 Binding Ki.
T1 construct: expressed in transfected cells; host or cells: HEK293T (stably transfected; membranes prepared from the cells)
T1 sequence (Q9Y5N1 whole entry): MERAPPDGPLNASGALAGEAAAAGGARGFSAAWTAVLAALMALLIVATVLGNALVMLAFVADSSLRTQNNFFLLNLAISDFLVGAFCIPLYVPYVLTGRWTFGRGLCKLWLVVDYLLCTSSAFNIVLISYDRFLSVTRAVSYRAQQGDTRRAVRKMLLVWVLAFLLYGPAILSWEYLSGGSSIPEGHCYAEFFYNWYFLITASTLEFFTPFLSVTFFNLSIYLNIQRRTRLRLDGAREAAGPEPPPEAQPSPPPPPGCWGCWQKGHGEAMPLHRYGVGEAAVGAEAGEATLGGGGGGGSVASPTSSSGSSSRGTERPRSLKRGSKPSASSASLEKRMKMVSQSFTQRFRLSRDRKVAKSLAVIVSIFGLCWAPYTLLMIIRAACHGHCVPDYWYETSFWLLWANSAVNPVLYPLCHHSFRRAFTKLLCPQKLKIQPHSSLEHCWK
Description: Evaluation of Methyl Histamine Binding in Human Histamine H3 Receptor Cell Line
The affinity of test compounds for the histamine 3 (H3) receptor is evaluated in the following manner. […] Cells are scraped from the plate, transferred to centrifuge tubes, washed one time in PBS by centrifugation in a Sorvall RT7 Plus centrifuge (2000 rpm 10 minutes, 4° C.). The resulting pellets are stored at −80° C. until ready for use. Cells are re-suspended in buffer (50 mM Tris pH=7.5) and placed in a Dounce homogenizer, douncing ten times to homogenize cells. The homogenate is spun down by centrifugation (Sorvall RT7 Plus, 1800 rpm 10 minutes, 4° C.). The supernatant is placed in a Corex tube and spun down by centrifugation (Sorvall RC 5c Plus, 17,000 rpm 20 minutes, 4° C.). The pellet is resuspended in buffer (50 mM Tris, pH 7.5). Protein concentration (ug/ul) is determined using the Micro-BCA Protein Determination. The binding assay is set up in a 96 well microtiter plate in a total volume of 250 uL. Non-specific binding is determined in the presence of 10 uM clobenpropit. The final radioligand concentration is 1 nM. The test compound is serially diluted using the Beckman Biomek2000 to a final approximate range of 100 uM to 100 pM. Membranes are suspended in buffer, homogenized in 2 bursts of ten seconds using a Vitris mechanical homogenizer set at power setting 5. Ten μg of membranes are added to each well. Following a one hour incubation at 30° C., the reaction is terminated by the addition of ice cold buffer and rapid filtration with a Packard Filtermate Harvester through a GF/B filter pre-soaked with 1% PEI for one hour. The plate is dried for one hour at 37° C. and 60 μL Microscint Scintillant is added to each well. The CPM per well is measured on a Packard Top Count NXT. Ki values are determined in nM. […] CPM values are expressed as % specific binding and plotted vs compound concentration. A curve is fitted using a four-parameter logistic fit and the IC50 value is determined. The Ki is calculated from this using the Cheng-Prusoff equation: […]=IC50/1+(L/Kd) where L=concentration of free radioligand used in the assay, and Kd is the dissociation constant of the radioligand for the receptor. L is determined for each experiment by counting an aliquot of the diluted radioligand (corresponding to that added to each well) and the Kd has previously been determined under identical conditions for this cell line/radioligand.

Compound	Ki
COC(=O)c1ccc(-c2ccc3c(c2)CCN(CCN2CCC[C@H]2C)C3=O)cc1 [Example 25, methyl 4-(2-{2-[(2R)-2-methylpyrrolidin-1-yl]ethyl}-1-oxo-1,2,3,4-tetrahydroiso-quinolin-6-yl)benzoate]	< 0.01 µM

Same assay, conditions: read-out: H3 Binding Ki

Compound	Ki
C[C@@H]1CCCN1CCN1CCc2cc(-c3ccc(C(=O)NC4CC4)cc3)ccc2C1=O [Example 76, N-cyclopropyl-4-(2-{2-[(2R)-2-methylpyrrolidin-1-yl]ethyl}-1-oxo-1,2,3,4-tetrahydroisoquinolin-6-yl)benzamide]	< 0.01 µM
C[C@@H]1CCCN1CCN1CCc2cc(Oc3ccc(C#N)cc3)ccc2C1=O [Example 49, 4-[(2-{2-[(2R)-2-methylpyrrolidin-1-yl]ethyl}-1-oxo-1,2,3,4-tetrahydroisoquinolin-6-yl)oxy]benzonitrile]	< 0.01 µM
CCNC(=O)c1ccc(-c2ccc3c(c2)CCN(CCN2CCCC2)C3)cc1 [Example 182, N-ethyl-4-[2-(2-pyrrolidin-1-ylethyl)-1,2,3,4-tetrahydroisoquinolin-6-yl]benzamide]	< 0.01 µM
O=C1c2ccc(-c3ccccc3F)cc2CCN1CCN1CCCC1 [Example 12, 6-(2-fluorophenyl)-2-(2-pyrrolidin-1-ylethyl)-3,4-dihydroisoquinolin-1(2H)-one]	0.0101 to 0.025 µM
C[C@@H]1CCCN1CCN1CCc2cc(-c3ccc(C(=O)NC4CCC4)cc3)ccc2C1=O [Example 74, N-cyclobutyl-4-(2-{2-[(2R)-2-methylpyrrolidin-1-yl]ethyl}-1-oxo-1,2,3,4-tetrahydroisoquinolin-6-yl)benzamide]	< 0.01 µM
CNC(=O)c1ccc(-c2ccc3c(c2)C(=O)N(CCN2CCC[C@H]2C)CC3)cc1 [Example 83, N-methyl-4-(2-{2-[(2R)-2-methylpyrrolidin-1-yl]ethyl}-1-oxo-1,2,3,4-tetrahydroiso-quinolin-7-yl)benzamide]	< 0.01 µM
C[C@@H]1CCCN1CCN1CCc2cc(Oc3ccc(C#N)cn3)ccc2C1=O [Example 48, 6-[(2-{2-[(2R)-2-methylpyrrolidin-1-yl]ethyl}-1-oxo-1,2,3,4-tetrahydroisoquinolin-6-yl)oxy]nicotinonitrile]	< 0.01 µM
CCN(CC)C(=O)c1ccc(Oc2ccc3c(c2)CCN(CCN2CCCC2)C3=O)cc1 [Example 96, N,N-diethyl-4-{[1-oxo-2-(2-pyrrolidin-1-ylethyl)-1,2,3,4-tetrahydroisoquinolin-6-yl]oxy}benzamide]	0.0251 to 0.05 µM
C[C@@H]1CCCN1CCN1CCc2cc(C(=O)N3CCCC3)ccc2C1=O [Example 151, 2-{2-[(2R)-2-methylpyrrolidin-1-yl]ethyl}-6-(pyrrolidin-1-ylcarbonyl)-3,4-dihydroisoquinolin-1(2H)-one]	< 0.01 µM
C[C@@H]1CCCN1CCN1CCc2cc(C(=O)Nc3ccncc3)ccc2C1=O [Example 153, 2-{2-[(2R)-2-methylpyrrolidin-1-yl]ethyl}-1-oxo-N-pyridin-4-yl-1,2,3,4-tetrahydroisoquinoline-6-carboxamide]	< 0.01 µM
N#Cc1ccc2c(ccn2-c2ccc3c(c2)CCN(CCN2CCCC2)C3=O)c1 [Example 35, 1-[1-oxo-2-(2-pyrrolidin-1-ylethyl)-1,2,3,4-tetrahydroisoquinolin-6-yl]-1H-indole-5-carbonitrile Hydrochloride]	< 0.01 µM
CNC(=O)c1ccc(-c2ccc3c(c2)CCN(CCN2CCCC2)C3=O)c(F)c1 [Example 139, 3-fluoro-N-methyl-4-[1-oxo-2-(2-pyrrolidin-1-ylethyl)-1,2,3,4-tetrahydroisoquinolin-6-yl]benzaimde]	< 0.01 µM
C[C@@H]1CCCN1CCN1CCc2cc(-c3ccc(C(=O)NC4CCCC4)cc3)ccc2C1=O [Example 80, N-cyclopentyl-4-(2-{2-[(2R)-2-methylpyrrolidin-1-yl]ethyl}-1-oxo-1,2,3,4-tetrahydroisoquinolin-6-yl)benzamide]	< 0.01 µM
C[C@@H]1CCCN1CCN1CCc2c(cccc2-c2cccc(C#N)c2)C1=O [Example 27, 3-(2-{2-[(2R)-2-methylpyrrolidin-1-yl]ethyl}-1-oxo-1,2,3,4-tetrahydroisoquinolin-5-yl)benzonitrile]	0.0501 to 0.1 µM

Second part, the compound after the results:

Ki	Compound
< 0.01 µM	N#Cc1ccc(-c2ccc3c(c2)CCN(CCCN2CCCC2)C3=O)cc1 [Example 32, 4-[1-oxo-2-(3-pyrrolidin-1-ylpropyl)-1,2,3,4-tetrahydroisoquinolin-6-yl]benzonitrile]
< 0.01 µM	O=C(c1ccc(-c2ccc3c(c2)CCN(CCN2CCCC2)C3=O)c(F)c1)N1CCCC1 [Example 138, 6-[2-fluoro-4-(pyrrolidin-1-ylcarbonyl)phenyl]-2-(2-pyrrolidin-1-ylethyl)-3,4-dihydroisoquinolin-1(2H)-one]
0.0101 to 0.025 µM	NC(=O)c1ccc(Oc2ccc3c(c2)CCN(CCN2CCCC2)C3=O)cc1 [Example 91, 4-{[1-oxo-2-(2-pyrrolidin-1-ylethyl)-1,2,3,4-tetrahydroisoquinolin-6-yl]oxy}benzamide]
0.0101 to 0.025 µM	O=C1c2ccc(-c3ccccc3)cc2CCN1CCN1CCCC1 [Example 16, 6-phenyl-2-(2-pyrrolidin-1-ylethyl)-3,4-dihydroisoquinolin-1(2H)-one]
0.0101 to 0.025 µM	O=C1c2ccc(-c3ccc(OC(F)(F)F)cc3)cc2CCN1CCN1CCCC1 [Example 14, 2-(2-pyrrolidin-1-ylethyl)-6-[4-(trifluoromethoxy)phenyl]-3,4-dihydroisoquinolin-1(2H)-one]
< 0.01 µM	O=C(c1ccc(-c2ccc3c(c2)CCN(CCN2CCCC2)C3=O)cc1)N1CCC1 [Example 64, 6-[4-(azetidin-1-ylcarbonyl)phenyl]-2-(2-pyrrolidin-1-ylethyl)-3,4-dihydroisoquinolin-1(2H)-one]
< 0.01 µM	N#Cc1ccc(-c2ccc3c(c2)CCN(CCN2CCCC2)C3=O)cc1 [Example 19, 4-[1-oxo-2-(2-pyrrolidin-1-ylethyl)-1,2,3,4-tetrahydroisoquinolin-6-yl]benzonitrile]
< 0.01 µM	O=C(Nc1nccs1)c1ccc(-c2ccc3c(c2)CCN(CCN2CCCC2)C3=O)cc1 [Example 130, 4-[1-oxo-2-(2-pyrrolidin-1-ylethyl)-1,2,3,4-tetrahydroisoquinolin-6-yl]-N-1,3-thiazol-2-ylbenzamide]
< 0.01 µM	O=C(c1ccc(-c2ccc3c(c2)CCN(CCN2CCCC2)C3=O)cc1)N1CCOCC1 [Example 122, 6-[4-(morpholin-4-ylcarbonyl)phenyl]-2-(2-pyrrolidin-1-ylethyl)-3,4-dihydroisoquinolin-1(2H)-one]
0.0501 to 0.1 µM	O=C(NCCOc1ccccc1)c1ccc(-c2ccc3c(c2)CCN(CCN2CCCC2)C3=O)cc1 [Example 71, 4-[1-oxo-2-(2-pyrrolidin-1-ylethyl)-1,2,3,4-tetrahydroisoquinolin-6-yl]-N-(2-phenoxyethyl)-benzamide]
< 0.01 µM	CC(C)NC(=O)c1ccc(-c2ccc3c(c2)CCN(CCN2CCCC2)C3=O)cc1 [Example 61, N-isopropyl-4-[1-oxo-2-(2-pyrrolidin-1-ylethyl)-1,2,3,4-tetrahydroisoquinolin-6-yl]benzamide]
< 0.01 µM	O=C(c1ccc(-c2ccc3c(c2)CCN(CCN2CCCC2)C3=O)cc1)N1CCCC1 [Example 54, 6-[4-(pyrrolidin-1-ylcarbonyl)phenyl]-2-(2-pyrrolidin-1-ylethyl)-3,4-dihydroisoquinolin-1(2H)-one hydrochloride]
< 0.01 µM	O=C1c2ccc(-c3ccc(F)cc3)cc2CCN1CCN1CCCCCC1 [Example 44, 2-(2-azepan-1-ylethyl)-6-(4-fluorophenyl)-3,4-dihydroisoquinolin-1(2H)-one hydrochloride]
< 0.01 µM	C[C@@H]1CCCN1CCN1CCc2cc(Oc3ccc(C(=O)N4CCCC4)cc3)ccc2C1=O [Example 160, 2-{2-[(2R)-2-methylpyrrolidin-1-yl]ethyl}-6-[4-(pyrrolidin-1-ylcarbonyl)phenoxy]-3,4-dihydroisoquinolin-1(2H)-one hydrochloride]
0.0101 to 0.025 µM	O=C1c2ccc(-c3ccc(F)cc3)cc2CCN1CCN1CCCC1 [Example 9, 6-(4-fluorophenyl)-2-(2-pyrrolidin-1-ylethyl)-3,4-dihydroiso-quinolin-1(2H)-one Hydrochloride]
< 0.01 µM	O=C(c1ccc(-c2ccc3c(c2)CCN(CCN2CCCC2)C3=O)cc1Cl)N1CCCC1 [Example 134, 6-[3-chloro-4-(pyrrolidin-1-ylcarbonyl)phenyl]-2-(2-pyrrolidin-1-ylethyl)-3,4-dihydroisoquinolin-1(2H)-one]
